Where a SMILES comes first, the peptide text is derived from it. [ ]: non-standard residue; d: D form. Nle = CCCC[C@H](N)C(=O)O; Orn = NCCC[C@H](N)C(=O)O
Assays:
hMCR-1a = target: T1, hMCR-1a (Homo sapiens, UniProt Q01726); assay: Competitive inhibition binding assay using [I125]-NDP-α-MSH, hMCR-1a membranes; conditions: HEK-293 membranes, recombinant human MCR-1, [I125]-NDP-α-MSH; read-out: MC-1 Ki (average)
T1 construct: expressed in transfected cells; host or cells: HEK-293 cells (membrane homogenates)
T1 sequence (Q01726 whole entry): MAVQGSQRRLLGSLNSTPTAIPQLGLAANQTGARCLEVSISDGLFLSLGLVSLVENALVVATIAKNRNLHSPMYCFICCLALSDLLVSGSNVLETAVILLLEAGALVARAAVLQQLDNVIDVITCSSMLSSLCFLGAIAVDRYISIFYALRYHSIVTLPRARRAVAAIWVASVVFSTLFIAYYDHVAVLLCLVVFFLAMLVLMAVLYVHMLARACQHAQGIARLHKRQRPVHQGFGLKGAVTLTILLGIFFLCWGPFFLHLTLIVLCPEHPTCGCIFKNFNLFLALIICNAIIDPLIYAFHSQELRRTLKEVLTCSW
Protocol: (§1) A competitive inhibition binding assay was performed using membrane homogenates prepared from HEK-293 cells that express recombinant hMCR-1a or hMCR-4 (in each instance where the h prefix refers to human), or alternatively membrane homogenates from B16-F10 mouse melanoma cells containing endogenous murine MCR-1. In the examples that follow, all MCR-1 and MCR-4 values are for human recombinant receptors, unless otherwise noted. Assays were performed in 96 well polypropylene round-bottom plates (VWR catalog number 12777-030). Membrane homogenates were incubated with 0.1 nM [I^125]-NDP-α-MSH (Perkin Elmer) and increasing concentrations of test peptides of the present invention in buffer containing 25 mM HEPES buffer (pH 7.5) with 100 mM NaCl, 2 mM CaCl2, 2 mM MgCl2, 0.3 mM 1,10-phenanthroline, and 0.2% bovine serum albumin. After incubation for 90 minutes at 37° C., the assay mixture was filtered onto GF/B Unifilter plates (Perkin-Elmer catalog number 6005177) and washed with 3 mL of ice-cold buffer per well. Filters were air dried and 35 μL of scintillation cocktail added to each well. Plates were counted in a Microbeta counter for bound radioactivity. Non-specific binding was measured by inhibition of binding of [I^125]-NDP-α-MSH in the presence of 1 μM NDP-α-MSH. Maximal specific binding (100%) was defined as the difference in radioactivity (cpm) bound to cell membranes in the absence and presence of 1 μM NDP-α-MSH. Each assay was conducted in duplicate and the actual mean values are described, with results less than 0% reported as 0%. Ki values for peptides of the present invention were determined using Graph-Pad PRISM® curve-fitting software.
(§2) Peptides of the following structures were synthesized and purified as described in Section 5 above, with the resulting peptide having the structure depicted. After synthesis and purification, the foregoing peptide was tested as described in Section 8 above, and average MCR-1 and MCR-4 Ki values determined as indicated. All Ki values were determined using [I^125]-NDP-α-MSH. All results are expressed in nM except for Emax values, which are percentage values.

hMCR-4 = target: T2, hMCR-4 (Homo sapiens, UniProt P32245); assay: Competitive inhibition binding assay using [I125]-NDP-α-MSH, hMCR-4 membranes; conditions: HEK-293 membranes, recombinant human MCR-4, [I125]-NDP-α-MSH; read-out: MC-4 Ki (average)
T2 construct: expressed in transfected cells; host or cells: HEK-293 cells (membrane homogenates)
T2 sequence (P32245 whole entry): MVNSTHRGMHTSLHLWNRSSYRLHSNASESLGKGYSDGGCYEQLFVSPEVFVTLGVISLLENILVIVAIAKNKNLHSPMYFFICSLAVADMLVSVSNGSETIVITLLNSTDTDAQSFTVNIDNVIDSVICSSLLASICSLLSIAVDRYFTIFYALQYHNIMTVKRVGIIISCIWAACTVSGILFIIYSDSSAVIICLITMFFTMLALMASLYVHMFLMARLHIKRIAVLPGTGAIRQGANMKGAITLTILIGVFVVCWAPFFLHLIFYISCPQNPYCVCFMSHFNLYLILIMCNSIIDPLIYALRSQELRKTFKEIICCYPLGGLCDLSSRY
Protocol: as §1, §2

hMCR-1 = target: T3, hMCR-1 (Homo sapiens, UniProt Q01726); assay: Assay for agonist activity: cAMP accumulation in HBL human melanoma cells; type: cell-based; conditions: for Emax: compared to reference agonist NDP-α-MSH, read-out: MC-1 Emax (average; cAMP HBL); for EC50: read-out: MC-1 EC50 (average; cAMP HBL)
T3 construct: endogenous in cells; host or cells: HBL human melanoma cell line
T3 sequence (Q01726 whole entry): as the sequence (Q01726 whole entry) above
Excerpt: Accumulation of intracellular cAMP was examined as a measure of the ability of the peptides of the present invention to elicit a functional response in a human melanoma cell line, HBL, that express hMCR-1 (see Kang, L., et al., “A selective small molecule agonist of melanocortin-1 receptor inhibits lipopolysaccharide-induced cytokine accumulation and leukocyte infiltration in mice,” J. Leuk. Biol. 80:897-904 (2006)) or HEK-293 cells that express hMCR-4. Confluent HBL cells that express hMCR-1 or HEK-293 cells that express recombinant hMCR-4 were detached from culture plates by incubation in enzyme-free cell dissociation buffer. Dispersed cells were suspended in Earle's Balanced Salt Solution containing 10 mM HEPES (pH 7.5), 1 mM MgCl2, 1 mM glutamine, 0.5% albumin and 0.3 mM 3-isobutyl-1-methyl-xanthine (IBMX), a phosphodiesterase inhibitor. The cells were plated in 96-well plates at a density of 0.4×10^5 cells per well for HBL cells and 0.5×10^5 cells per well for HEK-293 cells and pre-incubated for 10 minutes. Cells were exposed for 15 minutes at 37° C. to peptides of the present invention dissolved in DMSO (final DMSO concentration of 1%) at a concentration range of 0.05-5000 nM in a total assay volume of 200 μL. NDP-α-MSH was used as the reference agonist. cAMP levels were determined by an HTRF® cAMP cell-based assay system from Cisbio Bioassays utilizing cryptate-labeled anti-cAMP and d2-labeled cAMP, with plates read on a Perkin-Elmer Victor plate reader at […]. Data analysis was performed by nonlinear regression analysis with Graph-Pad PRISM® software. Maximum efficacy (Emax) values were determined for each test peptide of the present invention, compared to that achieved by the reference melanocortin agonist NDP-α-MSH.
as §2

| SMILES | Ki (hMCR-1a) | Ki (hMCR-4) | Emax (hMCR-1) | EC50 (hMCR-1) |
| --- | --- | --- | --- | --- |
| CCCC[C@H](NC(C)=O)C(=O)N[C@H](Cc1ccccc1)C(=O)N[C@@H](CCCNC(=N)N)C(=O)N[C@@H](C)C(=O)N[C@@H](Cc1c[nH]c2ccccc12)C(N)=O [Example 9.15, Ac-Nle-D-Phe-Arg-Ala-Trp-NH2] (Ac-[Nle][dF]RAW-NH2) | 1290 nM | 7120 nM | 67% |  |
| CCCC[C@H](NC(C)=O)C(=O)N[C@@H](C)C(=O)N[C@@H](Cc1c[nH]cn1)C(=O)N[C@H](Cc1ccccc1)C(=O)N[C@@H](CCCNC(=N)N)C(=O)N[C@@H](C)C(=O)N[C@@H](Cc1c[nH]c2ccccc12)C(N)=O [Example 9.1, Ac-Nle-Ala-His-D-Phe-Arg-Ala-Trp-NH2] (Ac-[Nle]AH[dF]RAW-NH2) |  |  | 96% |  |
| CCCC[C@H](NC(C)=O)C(=O)N[C@@H](Cc1c[nH]cn1)C(=O)N[C@@H](Cc1ccccc1)C(=O)N[C@@H](CCCNC(=N)N)C(=O)N[C@@H](C)C(=O)N[C@@H](Cc1c[nH]c2ccccc12)C(N)=O [Example 9.8, Ac-Nle-His-Phe-Arg-Ala-Trp-NH2] (Ac-[Nle]HFRAW-NH2) |  |  | 55% |  |
| CCCC[C@H](NC(C)=O)C(=O)N[C@@H](C)C(=O)N[C@@H](CCCCN)C(=O)N[C@H](Cc1ccccc1)C(=O)N[C@@H](CCCNC(=N)N)C(=O)N[C@@H](C)C(=O)N[C@@H](Cc1c[nH]c2ccccc12)C(N)=O [Example 9.20, Ac-Nle-Ala-Lys-D-Phe-Arg-Ala-Trp-NH2] (Ac-[Nle]AK[dF]RAW-NH2) | 4 nM |  | 107% |  |
| CCCC[C@H](NC(C)=O)C(=O)N[C@@H](C)C(=O)N[C@@H](Cc1c[nH]cn1)C(=O)N[C@H](Cc1ccccc1)C(=O)N[C@@H](CCCNC(=N)N)C(=O)N1CCC[C@H]1C(=O)N[C@H](Cc1c[nH]c2ccccc12)C(N)=O [Example 9.13, Ac-Nle-Ala-His-D-Phe-Arg-Pro-D-Trp-NH2] (Ac-[Nle]AH[dF]RP[dW]-NH2) | 2 nM | 650 nM | 90% | 0.17 nM |
| CCCC[C@H](NC(C)=O)C(=O)N[C@@H](C)C(=O)N[C@@H](Cc1c[nH]cn1)C(=O)N[C@H](Cc1ccccc1)C(=O)N[C@@H](CCCNC(=N)N)C(=O)N1CCC[C@H]1C(=O)N[C@@H](Cc1c[nH]c2ccccc12)C(N)=O [Example 9.2, Ac-Nle-Ala-His-D-Phe-Arg-Pro-Trp-NH2] (Ac-[Nle]AH[dF]RPW-NH2) |  |  | 78% |  |
| CCCC[C@H](NC(C)=O)C(=O)N[C@@H](C)C(=O)N[C@@H](Cc1c[nH]cn1)C(=O)N[C@H](Cc1ccccc1)C(=O)N[C@@H](CCCNC(=N)N)C(=O)NCC(=O)N[C@@H](Cc1c[nH]c2ccccc12)C(N)=O [Example 9.5, Ac-Nle-Ala-His-D-Phe-Arg-Gly-Trp-NH2] (Ac-[Nle]AH[dF]RGW-NH2) |  |  | 90% |  |
| CCCC[C@H](NC(C)=O)C(=O)N[C@@H](C)C(=O)N[C@@H](Cc1c[nH]cn1)C(=O)N[C@@H](Cc1ccccc1)C(=O)N[C@@H](CCCNC(=N)N)C(=O)NCC(=O)N[C@@H](Cc1c[nH]c2ccccc12)C(N)=O [Example 9.7, Ac-Nle-Ala-His-Phe-Arg-Gly-Trp-NH2] (Ac-[Nle]AHFRGW-NH2) |  |  | 75% |  |
| CCCC[C@H](NC(C)=O)C(=O)N[C@@H](C)C(=O)N[C@@H](Cc1c[nH]cn1)C(=O)N[C@@H](Cc1ccccc1)C(=O)N[C@@H](CCCNC(=N)N)C(=O)N[C@@H](C)C(=O)N[C@@H](Cc1c[nH]c2ccccc12)C(N)=O [Example 9.6, Ac-Nle-Ala-His-Phe-Arg-Ala-Trp-NH2] (Ac-[Nle]AHFRAW-NH2) |  |  | 72% | 4 nM |
| CCCC[C@H](NC(C)=O)C(=O)N[C@@H](C)C(=O)N[C@@H](CCCN)C(=O)N[C@H](Cc1ccccc1)C(=O)N[C@@H](CCCNC(=N)N)C(=O)N[C@@H](C)C(=O)N[C@@H](Cc1c[nH]c2ccccc12)C(N)=O [Example 9.21, Ac-Nle-Ala-Orn-D-Phe-Arg-Ala-Trp-NH2] (Ac-[Nle]A[Orn][dF]RAW-NH2) | 0.3 nM | 7580 nM | 107% |  |
| CCCC[C@H](NC(C)=O)C(=O)N[C@@H](C)C(=O)N[C@@H](Cc1c[nH]cn1)C(=O)N[C@H](Cc1ccccc1)C(=O)N[C@@H](CCCNC(=N)N)C(=O)N[C@@H](C)C(=O)N[C@@H](Cc1c[nH]c2ccccc12)C(=O)O [Example 9.14, Ac-Nle-Ala-His-D-Phe-Arg-Ala-Trp-OH] (Ac-[Nle]AH[dF]RAW-OH) | 6 nM |  | 73% |  |
| CCCC[C@H](NC(C)=O)C(=O)N[C@@H](C)C(=O)N[C@H](Cc1ccccc1)C(=O)N[C@@H](CCCNC(=N)N)C(=O)N[C@@H](C)C(=O)N[C@@H](Cc1c[nH]c2ccccc12)C(N)=O [Example 9.10, Ac-Nle-Ala-D-Phe-Arg-Ala-Trp-NH2] (Ac-[Nle]A[dF]RAW-NH2) |  |  | 85% |  |
| CCCC[C@H](NC(C)=O)C(=O)N[C@@H](C)C(=O)N[C@@H](Cc1ccccc1)C(=O)N[C@H](Cc1ccccc1)C(=O)N[C@@H](CCCNC(=N)N)C(=O)N[C@@H](C)C(=O)N[C@@H](Cc1c[nH]c2ccccc12)C(N)=O [Example 9.19, Ac-Nle-Ala-Phe-D-Phe-Arg-Ala-Trp-NH2] (Ac-[Nle]AF[dF]RAW-NH2) | 20 nM |  | 99% | 6 nM |
| CCCC[C@H](NC(C)=O)C(=O)N[C@@H](C)C(=O)N[C@@H](C)C(=O)N[C@H](Cc1ccccc1)C(=O)N[C@@H](CCCNC(=N)N)C(=O)N[C@@H](C)C(=O)N[C@@H](Cc1c[nH]c2ccccc12)C(N)=O [Example 9.17, Ac-Nle-Ala-Ala-D-Phe-Arg-Ala-Trp-NH2] (Ac-[Nle]AA[dF]RAW-NH2) |  |  | 94% |  |
| CCCC[C@H](NC(C)=O)C(=O)N[C@@H](C)C(=O)N[C@@H](Cc1c[nH]cn1)C(=O)N[C@H](Cc1ccccc1)C(=O)N[C@@H](CCCNC(=N)N)C(=O)N1CCC[C@@H]1C(=O)N[C@H](Cc1c[nH]c2ccccc12)C(N)=O [Example 9.12, Ac-Nle-Ala-His-D-Phe-Arg-D-Pro-D-Trp-NH2] (Ac-[Nle]AH[dF]R[dP][dW]-NH2) | 20 nM |  | 72% | 2 nM |
| CCCC[C@H](NC(C)=O)C(=O)N[C@@H](Cc1c[nH]cn1)C(=O)N[C@H](Cc1ccccc1)C(=O)N[C@@H](CCCNC(=N)N)C(=O)N[C@@H](C)C(=O)N[C@@H](Cc1c[nH]c2ccccc12)C(N)=O [Example 9.3, Ac-Nle-His-D-Phe-Arg-Ala-Trp-NH2] (Ac-[Nle]H[dF]RAW-NH2) |  |  | 95% | 1 nM |
| CCCC[C@H](NC(C)=O)C(=O)N[C@@H](C)C(=O)N[C@@H](Cc1c[nH]cn1)C(=O)N[C@H](Cc1ccccc1)C(=O)N[C@@H](C)C(=O)N[C@@H](C)C(=O)N[C@@H](Cc1c[nH]c2ccccc12)C(N)=O [Example 9.16, Ac-Nle-Ala-His-D-Phe-Ala-Ala-Trp-NH2] (Ac-[Nle]AH[dF]AAW-NH2) |  |  | 99% | 4 nM |
| CCCC[C@H](NC(C)=O)C(=O)N[C@@H](C)C(=O)N[C@@H](CCCNC(=N)N)C(=O)N[C@H](Cc1ccccc1)C(=O)N[C@@H](CCCNC(=N)N)C(=O)N[C@@H](C)C(=O)N[C@@H](Cc1c[nH]c2ccccc12)C(N)=O [Example 9.18, Ac-Nle-Ala-Arg-D-Phe-Arg-Ala-Trp-NH2] (Ac-[Nle]AR[dF]RAW-NH2) |  |  | 106% |  |
